This test concerns MV-4-11 cells. Briefly: Gene expression microarray analysis (Affymetrix PrimeView) and GSEA. The class given is cell-based, human. The settings on record: ProbeSet 11729384_s_at; LIST D. On the set-up: RFU PODN (11730768_x_at) / Fold change /veh PODN (11730768_x_at) / RFU LINC00158 (11744669_a_at) / Fold change /veh LINC00158 (11744669_a_at) / RFU DUSP10 (11751237_a_at) / Fold change /veh DUSP10 (11751237_a_at) / RFU ID3 (11757404_x_at) / Fold change /veh ID3 (11757404_x_at) / RFU PLEKHG5 (11737974_s_at) / Fold change /veh PLEKHG5 (11737974_s_at) / RFU LRRC4B (11730491_at) / Fold change /veh LRRC4B (11730491_at) / RFU GIMAP4 (11747438_a_at) / Fold change /veh GIMAP4 (11747438_a_at) / RFU KRT8 (11758183_x_at) / Fold change /veh KRT8 (11758183_x_at) / RFU CNN1 (11734310_a_at) / Fold change /veh CNN1 (11734310_a_at) / RFU VPS37D (11726825_at) / Fold change /veh VPS37D (11726825_at) / RFU C10orf10 (11716522_x_at) / Fold change /veh C10orf10 (11716522_x_at) / RFU KIR2DL2 /// KIR2DL4 /// KIR2DL5A /// KIR2DL5B /// KIR2DS1 /// KIR2DS2 /// KIR2DS3 /// KIR2DS4 /// KIR3DL3 /// KIR3DL3 /// KIR3DS1 (11738374_at) / Fold change /veh KIR2DL2 /// KIR2DL4 /// KIR2DL5A /// KIR2DL5B /// KIR2DS1 /// KIR2DS2 /// KIR2DS3 /// KIR2DS4 /// KIR3DL3 /// KIR3DL3 /// KIR3DS1 (11738374_at) / RFU C1QL1 (11718748_at) / Fold change /veh C1QL1 (11718748_at) / RFU TMPRSS4 (11747572_a_at) / Fold change /veh TMPRSS4 (11747572_a_at) / RFU HAMP (11756126_x_at) / Fold change /veh HAMP (11756126_x_at) / RFU RNFT2 (11725882_a_at) / Fold change /veh RNFT2 (11725882_a_at) / RFU NR4A2 (11747474_a_at) / Fold change /veh NR4A2 (11747474_a_at) / RFU ABCC12 (11746883_a_at) / Fold change /veh ABCC12 (11746883_a_at) / RFU TMEM136 (11760407_x_at) / Fold change /veh TMEM136 (11760407_x_at) / RFU CLDN22 /// WWC2 (11732394_at) / Fold change /veh CLDN22 /// WWC2 (11732394_at) / RFU HLA-DPB1 (11760878_x_at) / Fold change /veh HLA-DPB1 (11760878_x_at) / RFU SPINT1 (11716480_a_at) / Fold change /veh SPINT1 (11716480_a_at) / RFU GAP43 (11754022_s_at) / Fold change /veh GAP43 (11754022_s_at) / RFU A4GNT (11735810_at) / Fold change /veh A4GNT (11735810_at) / RFU PRB3 (11715151_x_at) / Fold change /veh PRB3 (11715151_x_at) / RFU TUBB4B (11761932_at) / Fold change /veh TUBB4B (11761932_at) / RFU CAPN14 (11732068_a_at) / Fold change /veh CAPN14 (11732068_a_at) / RFU TMCC2 (11721928_a_at) / Fold change /veh TMCC2 (11721928_a_at) / RFU IRGQ (11745062_a_at) / Fold change /veh IRGQ (11745062_a_at) / RFU FAM174B (11720279_a_at) / Fold change /veh FAM174B (11720279_a_at) / RFU TMPRSS4 (11748680_a_at) / Fold change /veh TMPRSS4 (11748680_a_at) / RFU FAM212B (11763350_a_at) / Fold change /veh FAM212B (11763350_a_at) / RFU PLEKHG5 (11743358_a_at) / Fold change /veh PLEKHG5 (11743358_a_at) / RFU ZSCAN30 (11745921_a_at) / Fold change /veh ZSCAN30 (11745921_a_at) / RFU CMKLR1 (11741424_a_at) / Fold change /veh CMKLR1 (11741424_a_at) / RFU LOC101060620 /// MAPK8IP1 (11723275_at) / Fold change /veh LOC101060620 /// MAPK8IP1 (11723275_at) / RFU SPTSSB (11747773_x_at) / Fold change /veh SPTSSB (11747773_x_at) / RFU PRSS12 (11739890_at) / Fold change /veh PRSS12 (11739890_at) / RFU BIN1 (11741810_x_at) / Fold change /veh BIN1 (11741810_x_at) / RFU WNT11 (11732464_a_at) / Fold change /veh WNT11 (11732464_a_at) / RFU C10orf10 (11716521_a_at) / Fold change /veh C10orf10 (11716521_a_at) / RFU C5orf56 (11738089_at) / Fold change /veh C5orf56 (11738089_at) / RFU CYB561 (11721691_x_at) / Fold change /veh CYB561 (11721691_x_at) / RFU ANKRD19P (11752326_a_at) / Fold change /veh ANKRD19P (11752326_a_at) / RFU OR2T12 /// OR2T33 /// OR2T8 (11738714_s_at) / Fold change /veh OR2T12 /// OR2T33 /// OR2T8 (11738714_s_at) / RFU VCAN (11748164_a_at) / Fold change /veh VCAN (11748164_a_at) / RFU JSRP1 (11732532_at) / Fold change /veh JSRP1 (11732532_at) / RFU KRTAP10-11 (11738290_x_at) / Fold change /veh KRTAP10-11 (11738290_x_at) / RFU MYO3A (11730013_a_at) / Fold change /veh MYO3A (11730013_a_at) / RFU EBF3 (11725865_a_at) / Fold change /veh EBF3 (11725865_a_at) / RFU CAMK2N1 (11719241_x_at) / Fold change /veh CAMK2N1 (11719241_x_at) / RFU C5orf56 (11738088_a_at) / Fold change /veh C5orf56 (11738088_a_at) / RFU OLFML3 (11715873_a_at) / Fold change /veh OLFML3 (11715873_a_at) / RFU LOC100653217 /// NTM (11731650_a_at) / Fold change /veh LOC100653217 /// NTM (11731650_a_at) / RFU MAPK11 (11762145_a_at) / Fold change /veh MAPK11 (11762145_a_at) / RFU FIZ1 (11724087_x_at) / Fold change /veh FIZ1 (11724087_x_at) / RFU OASL (11726364_x_at) / Fold change /veh OASL (11726364_x_at) / RFU SOX15 (11748057_x_at) / Fold change /veh SOX15 (11748057_x_at) / RFU CD79A (11719716_a_at) / Fold change /veh CD79A (11719716_a_at) / RFU HIST1H1D (11736915_at) / Fold change /veh HIST1H1D (11736915_at) / RFU CASKIN2 (11723855_a_at) / Fold change /veh CASKIN2 (11723855_a_at) / RFU LOC730098 (11760151_x_at) / Fold change /veh LOC730098 (11760151_x_at) / RFU OR4N2 (11742367_at) / Fold change /veh OR4N2 (11742367_at) / RFU PRRT2 (11749266_a_at) / Fold change /veh PRRT2 (11749266_a_at) / RFU SNX32 (11753110_a_at) / Fold change /veh SNX32 (11753110_a_at) / RFU CDHR5 (11726645_a_at) / Fold change /veh CDHR5 (11726645_a_at) / RFU RCAN1 (11760418_a_at) / Fold change /veh RCAN1 (11760418_a_at) / RFU FAM167A (11723789_a_at) / Fold change /veh FAM167A (11723789_a_at) / RFU FAM26E (11764081_at) / Fold change /veh FAM26E (11764081_at) / RFU ISYNA1 (11749810_s_at) / Fold change /veh ISYNA1 (11749810_s_at) / RFU ACY1 (11761880_at) / Fold change /veh ACY1 (11761880_at) / RFU 11764098_at / Fold change /veh 11764098_at / RFU SAMD14 (11745864_x_at) / Fold change /veh SAMD14 (11745864_x_at) / RFU NPB (11741838_a_at) / Fold change /veh NPB (11741838_a_at) / RFU TMPRSS6 (11731388_a_at) / Fold change /veh TMPRSS6 (11731388_a_at) / RFU KRTAP10-2 (11738614_at) / Fold change /veh KRTAP10-2 (11738614_at) / RFU ARHGAP8 /// PRR5-ARHGAP8 (11727945_x_at) / Fold change /veh ARHGAP8 /// PRR5-ARHGAP8 (11727945_x_at) / RFU KRTAP5-7 /// NADSYN1 (11734609_at) / Fold change /veh KRTAP5-7 /// NADSYN1 (11734609_at) / RFU RASL12 (11751679_a_at) / Fold change /veh RASL12 (11751679_a_at) / RFU CDKN2B (11736163_a_at) / Fold change /veh CDKN2B (11736163_a_at) / RFU PRF1 (11729649_at) / Fold change /veh PRF1 (11729649_at) / RFU, ZNF638 /// ZNF638-IT1 / Fold change vs veh, ZNF638 /// ZNF638-IT1 / RFU, PANK3 / Fold change vs veh, PANK3 / RFU, SH3YL1 / Fold change vs veh, SH3YL1 / RFU, ZEB2 / Fold change vs veh, ZEB2 / RFU, NRIP1 / Fold change vs veh, NRIP1 / RFU, PTTG1IP / Fold change vs veh, PTTG1IP / RFU, CAPN2 / Fold change vs veh, CAPN2 / RFU, MED14 / Fold change vs veh, MED14 / RFU, SNORA58 / Fold change vs veh, SNORA58 / RFU, C1orf63 / Fold change vs veh, C1orf63 / RFU, LRRFIP1 / Fold change vs veh, LRRFIP1 / RFU, NDUFAF7 / Fold change vs veh, NDUFAF7 / RFU, SLC12A2 / Fold change vs veh, SLC12A2 / RFU, IBTK / Fold change vs veh, IBTK / RFU, ESF1 / Fold change vs veh, ESF1 / Fold change vs veh, TMEM50B / RFU, TAOK1 / Fold change vs veh, TAOK1 / RFU, ACBD3 / Fold change vs veh, ACBD3 / RFU, TMA16 / Fold change vs veh, TMA16 / RFU, RWDD3 / Fold change vs veh, RWDD3 / RFU, BCAT1 / Fold change vs veh, BCAT1 / RFU, EDEM3 / Fold change vs veh, EDEM3 / RFU, TMEM33 / Fold change vs veh, TMEM33 / RFU, WDR75 / Fold change vs veh, WDR75 / RFU, AHCTF1 / Fold change vs veh, AHCTF1 / RFU, TFRC / Fold change vs veh, TFRC / RFU, ZDHHC17 / Fold change vs veh, ZDHHC17 / RFU, NOM1 / Fold change vs veh, NOM1 / RFU, ARL8B / Fold change vs veh, ARL8B / RFU, ZBTB11 / Fold change vs veh, ZBTB11 / RFU, TAMM41 / Fold change vs veh, TAMM41 / RFU, KIAA1704 /// LOC100996395 / Fold change vs veh, KIAA1704 /// LOC100996395 / RFU, ING1 / Fold change vs veh, ING1 / RFU, TRMT61B / Fold change vs veh, TRMT61B / RFU, FUBP3 / Fold change vs veh, FUBP3 / RFU, TP53 / Fold change vs veh, TP53 / RFU, TNKS2 / Fold change vs veh, TNKS2 / RFU, ZFP14 / Fold change vs veh, ZFP14 / RFU, ACTR2 / Fold change vs veh, ACTR2 / RFU, PPP3R1 / Fold change vs veh, PPP3R1 / RFU, PIK3R1 / Fold change vs veh, PIK3R1 / RFU, HNRNPA1 / Fold change vs veh, HNRNPA1 / RFU, RNF170 / Fold change vs veh, RNF170 / RFU, ZNF28 / Fold change vs veh, ZNF28 / RFU, RNGTT / Fold change vs veh, RNGTT / RFU, OGT / Fold change vs veh, OGT / RFU, BRD1 / Fold change vs veh, BRD1 / RFU, MARS / Fold change vs veh, MARS / RFU, ZNF655 / Fold change vs veh, ZNF655 / RFU, FAHD1 / Fold change vs veh, FAHD1 / RFU, BDP1 / Fold change vs veh, BDP1 / RFU, LRRCC1 / Fold change vs veh, LRRCC1 / RFU, ARID1A / Fold change vs veh, ARID1A / RFU, ZNF146 / Fold change vs veh, ZNF146 / RFU, ZNF330 / Fold change vs veh, ZNF330 / RFU, GPN3 / Fold change vs veh, GPN3 / RFU, C9orf123 / Fold change vs veh, C9orf123 / RFU, N4BP2L2 / Fold change vs veh, N4BP2L2 / RFU, ARFIP1 / Fold change vs veh, ARFIP1 / RFU, FAM179B / Fold change vs veh, FAM179B / RFU, BCL10 / Fold change vs veh, BCL10 / RFU, UHRF1BP1L / Fold change vs veh, UHRF1BP1L / RFU, BET1 / Fold change vs veh, BET1 / RFU, CNOT2 / Fold change vs veh, CNOT2 / RFU, ZNF268 / Fold change vs veh, ZNF268 / Fold change vs veh, ZNF507 / RFU, DGCR2 / Fold change vs veh, DGCR2 / RFU, WDSUB1 / Fold change vs veh, WDSUB1 / Fold change vs veh, HSP90B1 /// MIR3652 / RFU, ADSS / Fold change vs veh, ADSS / RFU, GK / Fold change vs veh, GK / RFU, ZNF148 / Fold change vs veh, ZNF148 / RFU, TAF9 / Fold change vs veh, TAF9 / RFU, SLC1A5 / Fold change vs veh, SLC1A5 / RFU, SLMO2 / Fold change vs veh, SLMO2 / RFU, ABCC4 / Fold change vs veh, ABCC4 / RFU, LOC101060439 /// RAP1B / Fold change vs veh, LOC101060439 /// RAP1B / RFU, RFX7 / Fold change vs veh, RFX7 / RFU, GTPBP10 / Fold change vs veh, GTPBP10 / RFU, CNEP1R1 / Fold change vs veh, CNEP1R1 / RFU, BIVM-ERCC5 /// ERCC5 / Fold change vs veh, BIVM-ERCC5 /// ERCC5 / RFU, ILF3 / Fold change vs veh, ILF3 / RFU 11762660_at / Fold change /veh 11762660_at / RFU VCAN (11757783_s_at) / Fold change /veh VCAN (11757783_s_at) / RFU DDX43 (11728927_at) / Fold change /veh DDX43 (11728927_at) / RFU KRT8 (11758188_x_at) / Fold change /veh KRT8 (11758188_x_at) / RFU NKD1 (11759106_at) / Fold change /veh NKD1 (11759106_at) / RFU SRD5A1 (11742802_a_at) / Fold change /veh SRD5A1 (11742802_a_at) / RFU TPSAB1 /// TPSB2 (11721975_s_at) / Fold change /veh TPSAB1 /// TPSB2 (11721975_s_at) / RFU GSTM3 (11746129_a_at) / Fold change /veh GSTM3 (11746129_a_at) / RFU IL23R (11737362_x_at) / Fold change /veh IL23R (11737362_x_at) / RFU TMEM51 (11727254_a_at) / Fold change /veh TMEM51 (11727254_a_at) / RFU PIWIL2 (11732686_x_at) / Fold change /veh PIWIL2 (11732686_x_at) / RFU ORM1 (11744905_x_at) / Fold change /veh ORM1 (11744905_x_at) / RFU CCDC152 (11743942_at) / Fold change /veh CCDC152 (11743942_at) / RFU ECM1 (11717891_a_at) / Fold change /veh ECM1 (11717891_a_at) / RFU IL23R (11748794_a_at) / Fold change /veh IL23R (11748794_a_at) / RFU TNFAIP8L3 (11732012_x_at) / Fold change /veh TNFAIP8L3 (11732012_x_at) / RFU MBOAT4 (11741988_at) / Fold change /veh MBOAT4 (11741988_at) / RFU 11764193_at / Fold change /veh 11764193_at / RFU TMEM53 (11763286_at) / Fold change /veh TMEM53 (11763286_at) / RFU MAGEB2 (11727129_at) / Fold change /veh MAGEB2 (11727129_at) / RFU TMEM200A (11744735_a_at) / Fold change /veh TMEM200A (11744735_a_at) / RFU CCDC152 (11751479_a_at) / Fold change /veh CCDC152 (11751479_a_at) / RFU FAM211A (11726209_a_at) / Fold change /veh FAM211A (11726209_a_at) / RFU RGS16 (11746705_a_at) / Fold change /veh RGS16 (11746705_a_at) / RFU VCAN (11755009_s_at) / Fold change /veh VCAN (11755009_s_at) / RFU RHOB (11743442_s_at) / Fold change /veh RHOB (11743442_s_at) / RFU RGS16 (11720943_a_at) / Fold change /veh RGS16 (11720943_a_at) / RFU RGS16 (11720944_at) / Fold change /veh RGS16 (11720944_at) / RFU, VPS4B / Fold change vs veh, VPS4B / RFU, CREB1 / Fold change vs veh, CREB1 / RFU, DNAJC13 / Fold change vs veh, DNAJC13 / RFU, GNAQ / Fold change vs veh, GNAQ / RFU, CDK5R1 / Fold change vs veh, CDK5R1 / RFU, ZRANB3 / Fold change vs veh, ZRANB3 / RFU, CUL4A / Fold change vs veh, CUL4A / RFU, CCNY / Fold change vs veh, CCNY / RFU, UFL1 / Fold change vs veh, UFL1 / RFU, COG3 / Fold change vs veh, COG3 / RFU, DIAPH2 / Fold change vs veh, DIAPH2 / RFU, SKA2 / Fold change vs veh, SKA2 / RFU, AFF3 / Fold change vs veh, AFF3 / RFU, LMF1 / Fold change vs veh, LMF1 / RFU, IPO11 / Fold change vs veh, IPO11 / RFU, DFFB / Fold change vs veh, DFFB / RFU, FOXP1 / Fold change vs veh, FOXP1 / RFU, CARD8 / Fold change vs veh, CARD8 / RFU, STRN3 / Fold change vs veh, STRN3 / RFU, ADK / Fold change vs veh, ADK / RFU, RASSF2 / Fold change vs veh, RASSF2 / RFU, WIPF1 / Fold change vs veh, WIPF1 / RFU, LARP1B / Fold change vs veh, LARP1B / RFU, RASA1 / Fold change vs veh, RASA1 / RFU, RB1 / Fold change vs veh, RB1 / RFU, PPFIA1 / Fold change vs veh, PPFIA1 / RFU, MAT2A / Fold change vs veh, MAT2A / RFU, CCT5 / Fold change vs veh, CCT5 / RFU, WDR92 / Fold change vs veh, WDR92 / RFU, CUX1 / Fold change vs veh, CUX1 / RFU, TTC7A / Fold change vs veh, TTC7A / RFU, TMEM135 / Fold change vs veh, TMEM135 / RFU, DEPTOR / Fold change vs veh, DEPTOR / RFU, CPM / Fold change vs veh, CPM / RFU, DNAJB6 / Fold change vs veh, DNAJB6 / RFU, CACNA2D3 / Fold change vs veh, CACNA2D3 / RFU, DTX4 / Fold change vs veh, DTX4 / RFU, TFCP2 / Fold change vs veh, TFCP2 / RFU, GMCL1 /// GMCL1P1 / Fold change vs veh, GMCL1 /// GMCL1P1 / RFU, AEBP2 / Fold change vs veh, AEBP2 / RFU, SNHG1 /// SNORD22 /// SNORD25 /// SNORD26 /// SNORD27 /// SNORD28 /// SNORD29 /// SNORD31 / Fold change vs veh, SNHG1 /// SNORD22 /// SNORD25 /// SNORD26 /// SNORD27 /// SNORD28 /// SNORD29 /// SNORD31 / Fold change (Aza/veh), C12orf56 (ProbeSet 11735607_a_at) / Fold change (ACY-1035/veh), C12orf56 (ProbeSet 11735607_a_at) / Fold change (Aza/veh), FGFR1OP (ProbeSet 11751329_s_at) / Fold change (ACY-1035/veh), FGFR1OP (ProbeSet 11751329_s_at) / Fold change (Aza/veh), VPS36 (ProbeSet 11739960_a_at) / Fold change (ACY-1035/veh), VPS36 (ProbeSet 11739960_a_at) / RFU SYPL1 (11715823_x_at) / Fold change /veh SYPL1 (11715823_x_at) / RFU IGFBP7 (11715501_s_at) / Fold change /veh IGFBP7 (11715501_s_at) / RFU REEP3 (11722064_at) / Fold change /veh REEP3 (11722064_at) / RFU IGLL1 (11728026_x_at) / Fold change /veh IGLL1 (11728026_x_at): dose or concentration left out as unconfirmed.

`Nc1ccc(-c2cccs2)cc1NC(=O)c1ccc2c(c1)cc(C1CC1)n2CCN1CCOCC1` [ACY-1035]: the “Fold change vs veh, CCNY” value is 0.87.

(Values after article PMC5218480 (PLoS ONE, 2017).)
